Patent US12024489B2, “Complex salt of rupestonic acid and alkaloid, preparation method therefor and use thereof” (XIAMEN INSTITUTE OF RARE EARTH MATERIALS, priority 2022, dated 2024)

Legend:
[1] = test system: cervical carcinoma cell line (Hela); test: In vitro anti-tumor activity test (CCK8), cervical carcinoma cell line; format: cell-based; settings: Hela cells, 48 h incubation, CCK8, absorbance 450 nm
Experimental: (§1) The obtained Artemisia Rupestris complex salts were subjected to an in vitro anti-tumor activity test, in which the in vitro inhibitory activity of the Artemisia Rupestris complex salts on the lung adenocarcinoma cell line (A549) and cervical carcinoma cell line (Hela) was mainly researched. The specific test process was illustrated by the process for testing the lung adenocarcinoma cell line (A549):
(§2) The prepared Artemisia Rupestris complex salt was weighed, added into a 5 mL plastic centrifuge tube and diluted to
(§3) 1 mL with DMSO, to obtain a test sample at an initial concentration. Then the test sample at an initial concentration was serially diluted with DMSO to obtain test samples in 5 different concentration gradients in sequence, which were stored in a refrigerator at 4° C. for later use.
(§4) The lung adenocarcinoma cell line (A549) was incubated in an incubator for 24 h under the conditions of 37° C., 5% CO2, and saturated humidity. When the cells were in logarithmic growth phase, the culture supernatant was discarded, and the residue was digested with 0.25% trypsin-EDTA solution. Then, the digestion was terminated with high glucose medium. The cells were seeded in a 96-well plate with a cell density of 5000 cells/well. The 96-well plate was incubated in an incubator for 24 h. Then the cell culture supernatant in the 96-well plate was discarded. 100 μL of high glucose medium was added to the 96-well plate, and test samples at different concentrations were added to wells at 1 μL/well (5 duplicate wells were set for each concentration). After the plate was incubated in an incubator for 48 h under the conditions of 37° C., saturated humidity and 5% CO2, 10 μL of CCK8 was added to each well, and the plate was then incubated in the incubator at 37° C. for 1-4 h. The absorbance of each well at 450 nm was measured on a multifunctional microplate reader. Inhibition rate %=[(ODcontrol cells−ODtreatment cells)/(ODcontrol cells−ODblank)]×100. Negative control was a mixed solution of Vhigh glucose medium and VDMSO at a ratio of 10:1.
The process for testing the inhibition of those compounds on the cervical cancer cell line (Hela) was the same as above.

[2] = test system: lung adenocarcinoma cell line (A549); test: In vitro anti-tumor activity test (CCK8), lung adenocarcinoma cell line; format: cell-based; settings: A549 cells, 48 h incubation, CCK8, absorbance 450 nm
Experimental: as §1, §2, §3, §4

| Compound | IC50 [1] | IC50 [2] | IC50 ([1]; Homo sapiens) | IC50 ([2]; Homo sapiens) | also measured |
| --- | --- | --- | --- | --- | --- |
| C=C(C(=O)O)[C@H]1CC[C@H](C)[C@@H]2CC(=O)C(C)=C2C1 [Rupestonic acid] | – | – | – | – | IC50 (μM) Hela [1]: Inactive; IC50 (μM) A549 [2]: Inactive |
| complex salt of rupestonic acid and sophoridine | 17.9 µM | 61.3 µM | – | – | – |
| O=C1CCC[C@@H]2[C@H]3CCC[N+]4([O-])CCC[C@@H](CN12)[C@@H]34 (stereo partly shown) [Oxymatrine] | – | – | 0.95 µM | – | – |
| O=C1CCC[C@@H]2[C@H]3CCCN4CCC[C@@H](CN12)[C@@H]34 [Matrine] | – | – | 774 µM | 6370 µM | – |
| O=C1C=CC[C@@H]2[C@H]3CCCN4CCC[C@@H](CN12)[C@@H]34 [Sophocarpine] | – | – | 122 µM | 241 µM | – |
| complex salt of rupestonic acid and sophocarpine | 115 µM | 714 µM | – | – | – |
| complex salt of rupestonic acid and matrine | 11.8 µM | 1.49 µM | – | – | – |
| complex salt of rupestonic acid and oxymatrine | 25.2 µM | – | – | – | – |
| O=C1CCC[C@@H]2[C@H]3CCCN4CCC[C@H](CN12)[C@@H]34 [Sophoridine] | – | – | 1490 µM | 16000 µM | – |
